For 13 compounds, IC50 results are on record in patent US12338256B2, “Aza-tetracyclic oxazepine compounds and uses thereof” (Genentech, Inc., priority 2022, dated 2025).

Assay [1] relates to HPAC (homozygous mutant KRAS G12D human pancreatic cell line). In words: KRAS 3D-Cell Proliferation Assay, HPAC (Example 503). Type of assay: cell-based. The following applies: Homo sapiens, HPAC, 168 h, HPAC 3D culture, 7 days, CellTiter-Glo 3D; read-out: Prolif HPAC 3D ATP IC50. The procedure, abridged: (§1)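 3D culture, ultra-low attachment wells; RPMI-1640/10% FBS/2 mM L-glutamine. Overnight settle, then compound series, 0.3% DMSO final, 7 d, 37° C, 5% CO2. Readout: CellTiter-Glo 3D luminescence. % inhibition vs DMSO (0%) and 1 μM staurosporine (100%); IC50 via 4-parameter Hill.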
(In ATP-based viability assays light output follows the ATP content of the culture.)

Assay [2] deals with H1975 (KRAS wild type human lung adenocarcinoma cell line). In words: KRAS 3D-Cell Proliferation Assay, H1975 (Example 503). Particulars: Homo sapiens, NCI-H1975, 168 h, H1975 3D culture, 7 days, CellTiter-Glo 3D; read-out: Prolif H1975 3D ATP IC50. Type of assay: cell-based. The essentials: as §1

Molecules are shown by their SMILES.

Consider `Cc1c(F)c(N)cc(-c2nc3c4c(nc(OC[C@@H]5CCC6C=C(F)CCN65)nc4c2F)N2C[C@H]4CC[C@H](N4)[C@H]2[C@H](C)O3)c1C(F)(F)F` (stereo partly drawn) [Compound 120, 2-fluoro-5-((5S,5aS,6S,9R)-1-fluoro-12-(((3S)-7-fluoro-1,2,3,5,6,8a-hexahydroindolizin-3-yl)methoxy)-5-methyl-5a,6,7,8,9,10-hexahydro-5H-4-oxa-3,10a,11,13,14-pentaaza-6,9-methanonaphtho[1,8-ab]heptalen-2-yl)-3-methyl-4-(trifluoromethyl)aniline], for which the IC50 (usually the concentration needed to halve the response being measured) was found to be 0.0106 µM in assay [1] and 1.53 µM in assay [2].
As to `Cc1c(F)c(N)cc(-c2nc3c4c(nc(OC[C@@]56CCC(C)N5C[C@H](F)C6)nc4c2F)N2C[C@H]4CC[C@H](N4)[C@H]2[C@H](C)O3)c1C(F)(F)F` (stereo partly drawn) [Compound 122, 2-fluoro-5-((5S,5aS,6S,9R)-1-fluoro-12-(((2R,7aS)-2-fluoro-5-methyltetrahydro-1H-pyrrolizin-7a(5H)-yl)methoxy)-5-methyl-5a,6,7,8,9,10-hexahydro-5H-4-oxa-3,10a,11,13,14-pentaaza-6,9-methanonaphtho[1,8-ab]heptalen-2-yl)-3-methyl-4-(trifluoromethyl)aniline], the half-maximal inhibitory concentration (IC50) in assay [1] stood at 0.00184 µM; in assay [2] it was 0.487 µM.
For `Cc1c(F)c(N)cc(-c2nc3c4c(nc(OCC5CN(CC(F)F)C5)nc4c2F)N2C[C@H]4CC[C@H](N4)[C@H]2[C@H](C)O3)c1C(F)(F)F` [Compound 128, 5-((5S,5aS,6S,9R)-12-((1-(2,2-Difluoroethyl)azetidin-3-yl)methoxy)-1-fluoro-5-methyl-5a,6,7,8,9,10-hexahydro-5H-4-oxa-3,10a,11,13,14-pentaaza-6,9-methanonaphtho[1,8-ab]heptalen-2-yl)-2-fluoro-3-methyl-4-(trifluoromethyl)aniline] the same measures were 0.0515 µM and 5.06 µM.
In the same order, the values of `Cc1c(F)c(N)cc(-c2nc3c4c(nc(OCC56COC(CN5C)C6)nc4c2F)N2C[C@H]4CC[C@H](N4)[C@H]2[C@H](C)O3)c1C(F)(F)F` [Compound 132, 2-Fluoro-5-((5S,5aS,6S,9R)-1-fluoro-5-methyl-12-((5-methyl-2-oxa-5-azabicyclo[2.2.1]heptan-4-yl)methoxy)-5a,6,7,8,9,10-hexahydro-5H-4-oxa-3,10a,11,13,14-pentaaza-6,9-methanonaphtho[1,8-ab]heptalen-2-yl)-3-methyl-4-(trifluoromethyl)aniline] are 0.0704 µM and 14.2 µM.
For the compound `Cc1c(F)c(N)cc(-c2nc3c4c(nc(OC[C@@H]5CO[C@H]6CC[N@]5C6)nc4c2F)N2C[C@H]4CC[C@H](N4)[C@H]2[C@H](C)O3)c1C(F)(F)F` [Compound 135, 5-((5S,5aS,6S,9R)-12-(((1R,2S,5S)-4-Oxa-1-azabicyclo[3.2.1]octan-2-yl)methoxy)-1-fluoro-5-methyl-5a,6,7,8,9,10-hexahydro-5H-4-oxa-3,10a,11,13,14-pentaaza-6,9-methanonaphtho[1,8-ab]heptalen-2-yl)-2-fluoro-3-methyl-4-(trifluoromethyl)aniline], the IC50 in assay [1] is 0.0956 µM; in assay [2], 20 µM.
Take `Cc1c(F)c(N)cc(-c2nc3c4c(nc(OCCCN5CCOCC5)nc4c2F)N2C[C@H]4CC[C@H](N4)[C@H]2[C@H](C)O3)c1C(F)(F)F` [Compound 138, 2-Fluoro-5-((5S,5aS,6S,9R)-1-fluoro-5-methyl-12-(3-morpholinopropoxy)-5a,6,7,8,9,10-hexahydro-5H-4-oxa-3,10a,11,13,14-pentaaza-6,9-methanonaphtho[1,8-ab]heptalen-2-yl)-3-methyl-4-(trifluoromethyl)aniline]: the values for the half-maximal inhibitory concentration (IC50) in assay [1] and in assay [2] were 0.0151 µM and 2.55 µM, respectively.
As to `Cc1c(F)c(N)cc(-c2nc3c4c(nc(OCC56C[C@H](F)CN5C[C@@H](F)C6)nc4c2F)N2C[C@H]4CC[C@H](N4)[C@H]2[C@H](C)O3)c1C(F)(F)F` [Compound 139, 5-((5S,5aS,6S,9R)-12-(((2S,6S)-2,6-Difluorotetrahydro-1H-pyrrolizin-7a(5H)-yl)methoxy)-1-fluoro-5-methyl-5a,6,7,8,9,10-hexahydro-5H-4-oxa-3,10a,11,13,14-pentaaza-6,9-methanonaphtho[1,8-ab]heptalen-2-yl)-2-fluoro-3-methyl-4-(trifluoromethyl)aniline], the 50% inhibitory concentration (IC50) in assay [1] turned out to be 0.118 µM; in assay [2], 8.57 µM.
For `Cc1c(F)c(N)cc(-c2nc3c4c(nc(OC[C@]56C[C@H](F)CN5C[C@H](F)C6)nc4c2F)N2C[C@H]4CC[C@H](N4)[C@H]2[C@H](C)O3)c1C(F)(F)F` [Compound 141, 5-((5S,5aS,6S,9R)-12-(((2R,6S,7ar)-2,6-Difluorotetrahydro-1H-pyrrolizin-7a(5H)-yl)methoxy)-1-fluoro-5-methyl-5a,6,7,8,9,10-hexahydro-5H-4-oxa-3,10a,11,13,14-pentaaza-6,9-methanonaphtho[1,8-ab]heptalen-2-yl)-2-fluoro-3-methyl-4-(trifluoromethyl)aniline] the same measures were 0.00692 µM and 6.24 µM.
In the case of `Cc1c(F)c(N)cc(-c2nc3c4c(nc(OC[C@@]56C[C@H](F)CN5C[C@H](F)C6)nc4c2F)N2C[C@H]4CC[C@H](N4)[C@H]2[C@H](C)O3)c1C(F)(F)F` [Compound 142, 5-((5S,5aS,6S,9R)-12-(((2R,6S,7as)-2,6-Difluorotetrahydro-1H-pyrrolizin-7a(5H)-yl)methoxy)-1-fluoro-5-methyl-5a,6,7,8,9,10-hexahydro-5H-4-oxa-3,10a,11,13,14-pentaaza-6,9-methanonaphtho[1,8-ab]heptalen-2-yl)-2-fluoro-3-methyl-4-(trifluoromethyl)aniline], the IC50 in assay [1] was found to be 0.00545 µM; in assay [2], 3.56 µM.
In the same order, the values of `Cc1c(F)c(N)cc(-c2nc3c4c(nc(OC[C@H](F)CN5CC6(COC6)C5)nc4c2F)N2C[C@H]4CC[C@H](N4)[C@H]2[C@H](C)O3)c1C(F)(F)F` [Compound 144] are 0.0212 µM and 7.51 µM.
Regarding `Cc1c(F)c(N)cc(-c2nc3c4c(nc(OC[C@@H](F)CN5CC6(COC6)C5)nc4c2F)N2C[C@H]4CC[C@H](N4)[C@H]2[C@H](C)O3)c1C(F)(F)F` [Compound 145], the IC50 was 0.0687 µM in assay [1] and 5.12 µM in assay [2].
In the same order, the values of `Cc1c(F)c(N)cc(-c2nc3c4c(nc(OC[C@@H](F)CN5CC(CO)(CO)C5)nc4c2F)N2C[C@H]4CC[C@H](N4)[C@H]2[C@H](C)O3)c1C(F)(F)F` [Compound 146] are 1.74 µM and 20 µM.
As to `Cc1c(F)c(N)cc(-c2nc3c4c(nc(OCCC5(N6CCOCC6)COC5)nc4c2F)N2C[C@H]4CC[C@H](N4)[C@H]2[C@H](C)O3)c1C(F)(F)F` [Compound 149, 2-Fluoro-5-((5S,5aS,6S,9R)-1-fluoro-5-methyl-12-(2-(3-morpholinooxetan-3-yl)ethoxy)-5a,6,7,8,9,10-hexahydro-5H-4-oxa-3,10a,11,13,14-pentaaza-6,9-methanonaphtho[1,8-ab]heptalen-2-yl)-3-methyl-4-(trifluoromethyl)aniline], the IC50 in assay [1] turned out to be 0.186 µM; in assay [2] it was 20 µM.
